Here are results for three substances from US8859496B2, “Pharmaceutical composition using connective-tissue growth factor” (Postech Academy-Industry Foundation, priority 2010, dated 2014).

The test system of one data set is human FPRL1. The data set is described as follows: siRNA inhibition of FPRL1 expression in HUVECs (RT-PCR). It is filed as cell-based. The following applies: siRNA 20 nM. As for the experimental part: To inhibit transcription of human FPRL1 using siRNA, siRA to FPRL1 (sense: UUCACAUCGUGGUGGACAUdTdT (SEQ ID NO. 3), anti-sense: AUGUCCACCACGAUGUGAAdTdT (SEQ ID NO. 4)) was used. As result of BLAST search of the siRNA sequence, it was confirmed that there is no significant similarity to other sequences in the database. […] HUVECs were used for siRNA transfection. The cells were transfected to the final concentration of 20 nM with FPRL1 siRNA (SEQ ID NO. 3 and SEQ ID NO. 4) or transfected with luciferase siRNA (SEQ ID NO. 11 and SEQ ID NO. 12) as control. At this time, a lipofectamine reagent (Invitrogen Life Technologies) was used according to the manufacturer's instruction. The cells were washed with serum-free medium, and cultured with the transfection mixture to which medium containing 20% (v/v) FBS was added for 4.5 hours. 24 hours and 48 hours after culturing, the cells were collected, and the degree of FPRL1 expression was confirmed by RT-PCR analysis.
All RNAs were separated from the transfected HUVECs according to the manufacturer's instruction using commercially available TRI reagent (Molecular Research Center). First-strand cDNA was synthesized according to the manufacturer's instruction using 3 ug of each DNA-free total RNA sample and oligo(dT)15 and Moloney murine leukemia virus reverse transcriptase (Promega, Wis., USA). […]

Data set [1] relates to HUVECs. The data set is described as follows: HUVEC tube formation on Matrigel. It is filed as cell-based, human. The following applies: compared to Luciferase siRNA control. The protocol:
Meanwhile, to analyze tube formation, HUVECs were inoculated on the previously polymerized Matrigel (BD Biosciences) layer together with a certain amount of linker polypeptide, rhCTGF or VEGF-A165. After culturing for 18 hours, the shape of the cells was observed by phase-contrast microscopy, and photographed with 40× magnification. By measuring the length of tubes 5 times in LPF (low-power fields) randomly selected from each well using image-Pro Plus v4.5 (Media Cybernetics, Silver Spring, Md.), the degree of tube formation was quantified.
(§1) First, 20 ng/ml of VEGF-A was administered to HUVECs, the degree of cell proliferation, cell migration, or tube formation was confirmed by the <Experiment method 9>, and the results are shown in FIGS. 22 to 24. At this time, FPRL1 antagonist WRW4 was additionally added.

In data set [2] the test system is HUVECs. The data set is described as follows: HUVEC wound migration assay. It is filed as cell-based, human. The following applies: compared to Luciferase siRNA control. As for the experimental part:
Specifically, HUVECs inoculated on a 60-mm culture dish to confluence were wounded with the end of a pipette, and treated with linker polypeptide (10^−1˜10^2 nM) or recombinant CTGF (recombinant human CTGF, rhCTGF; BioVendor R&D, NC, USA) (10^1 or 10^2 nM) in Medium 199 to which 1% serum and 1 mM thymidine were added. After culturing 16 hours, the number of cells that migrated over a reference line was counted to quantify the degree of migration, and the cells were photographed with 50× magnification.
as §1

Another data set addresses T1, FPRL1 (Homo sapiens, UniProt P25090).
T1 construct: expressed in transfected cells; host or cells: rat basophil leukemia RBL-2H3 cells, kept under G418
T1 sequence (P25090 1-351): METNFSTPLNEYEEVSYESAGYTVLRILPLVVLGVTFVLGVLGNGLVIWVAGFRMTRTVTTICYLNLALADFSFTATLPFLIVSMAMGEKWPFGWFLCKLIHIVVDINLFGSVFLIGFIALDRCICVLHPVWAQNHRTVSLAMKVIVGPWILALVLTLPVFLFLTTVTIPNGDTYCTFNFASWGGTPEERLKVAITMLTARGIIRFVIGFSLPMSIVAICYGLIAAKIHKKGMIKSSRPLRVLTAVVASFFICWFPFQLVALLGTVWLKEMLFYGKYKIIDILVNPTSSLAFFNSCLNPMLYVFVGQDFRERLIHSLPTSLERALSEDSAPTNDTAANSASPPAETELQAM
The data set is described as follows: ERK phosphorylation in FPRL1/RBL cells (immunoblot). The following applies: vector/RBL, FPR/RBL or FPRL1/RBL cells; conditioned medium or VEGF-A 10 ng/ml 8 hours; WKYMVm 10 nM. The class given is cell-based. As for the experimental part:
Vector/RBL cells, FPR/RBL cells, FPRL1/RBL cells, and HUVECs were cultured to confluence, and serum-starved. The stimulated cells (1×10^5 cells) were washed with PBS twice, dissolved in 1 ml of sample buffer (50 mM Tris-HCl, 100 mM NaCl, 0.1% SDS, 1% Nonidet P-40, 50 mM NaF, 1 mM Na3VO4, 1 μg/ml aprotinin, 1 μg/ml pepstatin, and 1 μg/ml leupeptin), heated at 95° C. for 30 seconds, separated with SDS-PAGE, and then, transferred to a nitrocellulose film. Immunoblot was conducted using anti-phospho-ERK (extracellular signal regulated kinase)1/2 (Thr^202/Tyr^204)(Cell Signaling Technology, Beverly, Mass., USA), anti-ERK1/2 (Cell Signaling Technology, Beverly, Mass., USA), anti-CTGF (Abcam, Cambridge, Mass., USA), anti-Actin (Sigma, St. Louis, Mo., USA), or anti-Flag (Sigma, St. Louis, Mo., USA) antibody, and then, the film was visualized with a chemiluminescence substrate (Amersham Pharmacia).
To confirm this, the inventors obtained conditioned medium (CM) in HUVEC treated with VEGF-A, and FPRL1-overexpressing cells FPRL1/RBL were treated therewith in the concentration of 10 ng/ml or 50 ng/ml for 8 hours. At this time, as positive control, FPRL1 agonistic peptide WKYMVm (Trp-Lys-Tyr-Met-Val-D-Met, SEQ ID NO. 1) was treated with 10 nM.
After the treatment, immunoblot was conducted on cell lysate that was transferred to a nitrocellulose film with anti-phospho ERK (extracellular signal regulated kinase)1/2 and anti-ERK1/2 antibody (Cell Signaling Technology, Beverly, Mass., USA), and then, the film was visualized with a chemiluminescence substrate (Amersham Pharmacia), and the results are shown in FIG. 1.
Meanwhile, the above described vector/RBL, FPR/RBL, or FPRL1/RBL cells were respectively treated with the above conditioned medium or VEGF-A at the concentration of 10 ng/ml for 8 hours, and positive control was treated with 10 nM of agonistic peptide WKYMVm (SEQ ID NO. 1).
As described in the <Experiment method 5>, FPRL1/RBL cells were treated with 40 ug of the HPLC fraction of the conditioned medium for 5 minutes, and the result confirming whether ERK phosphorylation occurred as described in the <Experiment result 1> was shown in FIG. 3.
To confirm whether the purified proteins induce ERK phosphorylation in FPRL1/RBL cells, immunoblot was conducted as described in the <Experiment result 1>, and the results are shown in FIG. 9.
ERK phosphorylation induction of CTGF linker polypeptide was compared to recombinant human CTGF (rhCTGF). Specifically, FPRL1/RBL cells were treated with CTGF linker polypeptide and rhCTGF for 5 minutes at various concentrations, ERK phosphorylation was measured, and the results are shown in FIG. 11. […]
In general terms: In western blotting, separated proteins are transferred to a membrane and probed.

For “FPRL1 siRNA: sense: UUCACAUCGUGGUGGACAUdTdT (SEQ ID NO. 3), anti-sense: AUGUCCACCACGAUGUGAAdTdT (SEQ ID NO. 4) (dTdT overhangs, chemistry not fully specified)”, the “FPRL1 expression after siRNA” value in the data set on human FPRL1 is reported as “FPRL1 expression is inhibited”. Besides, the “effect of siRNA on HUVEC tube formation induced by VEGF-A” value in the data set on HUVECs [1] is given as “cell migration or tube formation induced by VEGF-A is inhibited”. In addition, the “effect of siRNA on HUVEC cell migration induced by VEGF-A” value in the data set with HUVECs [2] is on record as “cell migration or tube formation induced by VEGF-A is inhibited”.

For “Luciferase siRNA: control siRNA, sense: CGUACGCGGAAUACUUCGAdTdT (SEQ ID NO. 11), anti-sense: UCGAAGUAUUCCGCGUACGdTdT (SEQ ID NO. 12) (dTdT overhangs, chemistry not fully specified)”, the “FPRL1 expression after siRNA” value in the data set with human FPRL1 is reported as “FPRL1 expression is not inhibited”. Regarding Trp-Lys-Tyr-Met-Val-D-Met [WKYMVm], the “ERK phosphorylation, specificity for FPRL1” value with FPRL1 is “induce ERK phosphorylation only in FPRL1-overexpressing FPRL1/RBL cells”.
